Holding throughout (format): cell-based, mouse
The test system of one assay is MyoD. In words: MyoD expression in myostatin-treated myotubes (Western blotting). Particulars: extract 30 μg/ml. How it is done:
(§1) The myotubes differentiated by the same method as in Test Example 5-2 were treated with myostatin and the processed ginseng extract of Example 2 to secure cells. The treatment concentrations of the processed ginseng extract of Example 2 was 30 μg/ml. The secured cells were subjected to Western blotting using antibodies corresponding to MyoD and MAFbx by the same method as in Test Example 6-1, and the results are shown in FIG. 8.

A further assay has as its system MAFbx. In words: MAFbx expression in myostatin-treated myotubes (Western blotting). The following applies: extract 30 μg/ml. As for the experimental part: as §1
In general terms: In western blotting, separated proteins are transferred to a membrane and probed.

The test system of assay [1] is phosphorylated Smad2 (pSmad2). The assay is described as follows: Smad2 phosphorylation in myostatin-treated myotubes (Western blotting). The following applies: myotubes treated with myostatin; extract 0, 10, 30, and 100 μg/ml. How it is done:
The myotubes differentiated by the same method as in Test Example 5-2 were treated with myostatin and the processed ginseng extract of Example 2 to secure cells, and the cells were subjected to Western blotting. The treatment concentrations of the processed ginseng extract of Example 2 was 0, 10, 30, and 100 μg/ml. A lysis buffer was added to the secured cells to lyse cells, and then centrifugation was used to secure proteins of the supernatant. The secured proteins of the supernatant were separated through sodium dodecyl sulfate polyacrylamide gel electrophoresis (SDS-PAGE) and transferred to a polyvinylidene fluoride (PVDF) membrane. The membrane was blocked by a blocking solution, treated with a primary antibody in order to determine the amounts of Smad2 and phosphorylated Smad2 (pSmad2), and then treated with a secondary antibody to the primary antibody. Then, enhanced chemiluminescence (ECL, Amersham) was used to examine protein expression.

Assay [2] has as its system myotubes differentiated from C2C12. The assay is described as follows: Myostatin-induced myoatrophy cell model (myotube breadth). How it is done: After myotubes were differentiated by the same method as in the induction of myotube differentiation of Test Example 1, the cells were added in DMEM not containing FBS, and cultured for 3 hours. After culturing, the cells were treated with the myogenesis inhibitor myostatin (MSTN) at different concentrations for 24 hours, and the change in breadth of myotubes was measured in order to investigate whether myoatrophy was induced. The change in breadth of myotubes was measured by the same method as in Test Example 4, and after the immunofluorescent staining, images of myotubes were observed using the fluorescent substance attached to MHC through a microscope, and the Image J program was used to determine the breadth of myotubes.
To investigate the myoatrophy inhibitory effect of the processed ginseng extracts of the present invention, myoatrophy was induced by the same method as the construction method of myoatrophy animal cell models in Test Example 5-1, and then the change in myotube breadth was observed. The myotubes were treated with 0.4 μg/0 myostatin (MSTN) and 30 μg/0 the processed ginseng extract of Example 2 alone or in combination, and the myotubes not treated with myostatin and the processed ginseng extract of Example 2 were used as a control group.

As for “myostatin: myogenesis inhibitor protein of the TGF-β group, used to induce myotube atrophy”, in the assay with MyoD, the “MyoD expression (compared with GAPDH)” value is on record as “reduction in MyoD expression”. Besides, in the assay on MAFbx, the “MAFbx expression (compared with GAPDH)” value is on record as “increase in MAFbx expression”. Besides, in assay [1], the “Smad2 phosphorylation (pSmad2)” value is reported as “increased”. In assay [2] (30 μg/0 Example 2 extract or 0.4 μg/0 myostatin alone), the “myotube breadth compared with the control group, treatment alone” value is recorded as “reduced”. Also, the “myostatin concentration giving greatest reduction in breadth of myotubes” value in assay [2] (24 hours) is 0.4 μg/0. In addition, the “breadth of myotubes compared with myotubes not treated with myostatin” value in assay [2] (myostatin at different concentrations for 24 hours) is reported as “reduced in breadth of myotubes with the increase of the treatment concentration”.
